Laboratory results: patent EP1322622B1, “NEW N, N'-DISUBSTITUTED BENZIMIDAZOLONE DERIVATIVES WITH AFFINITY AT THE SEROTONIN AND DOPAMINE RECEPTORS” (Sprout Pharmaceuticals, Inc., priority 2000, dated 2002)

Assays:
5-HT1A human receptors = biological target: T1, 5-HT1A human receptors (Homo sapiens, UniProt P08908); test: 5-HT1A Radioligand Receptor Binding Assay ([3H]-8-OH-DPAT, CHO cell membranes); details: for IC50: [3H]-8-OH-DPAT displacement, CHO membranes, read-out: 5-HT1A receptor binding IC50; for inhibition at 0.1 µM: compound at 10^-7 M, singlicate, [3H]-8-OH-DPAT 0.6-0.7 nM, read-out: 5-HT1A receptor binding assay % inhib. (10^-7 M)
T1 construct: expressed in transfected cells; host or cells: CHO cells
T1 sequence (P08908 1-422): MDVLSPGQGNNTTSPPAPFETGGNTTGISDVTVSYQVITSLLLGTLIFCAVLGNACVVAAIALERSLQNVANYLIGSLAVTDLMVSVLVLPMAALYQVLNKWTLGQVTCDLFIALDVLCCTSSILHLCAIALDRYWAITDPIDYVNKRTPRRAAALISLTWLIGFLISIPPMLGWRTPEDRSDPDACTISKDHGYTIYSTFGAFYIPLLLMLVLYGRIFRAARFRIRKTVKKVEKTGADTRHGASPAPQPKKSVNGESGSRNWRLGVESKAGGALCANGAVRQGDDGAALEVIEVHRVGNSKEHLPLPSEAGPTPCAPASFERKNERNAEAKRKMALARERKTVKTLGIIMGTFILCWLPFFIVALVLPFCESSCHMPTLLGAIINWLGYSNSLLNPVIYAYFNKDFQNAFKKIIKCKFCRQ
Protocol: Membranes from CHO cells, expressing 5-HT1A human receptors were suspended in incubation buffer.
The compounds were tested in singlicate at one concentration (10^-7 M) in a total volume of 1000 µl. 980 µl of diluted membranes, 10 µl DMSO or unlabelled ligand and 10 µl of [^3H]-8-OH-DPAT (0.6-0.7 nM) were incubated for 60 min at 27 °C. The reaction was stopped by rapid filtration through Tomtec cell Harvester (48 wells) using Filtermat B (presoaked in 0.1% PEI) filters. […] Non specific binding was determined in the presence of 5-HT (10^-5 M).
(§1) The specific radioligand binding to the receptor was defined by the difference between total binding and non specific binding, determined in the presence of an excess of unlabelled ligand. Results were expressed as percentage of control specific binding obtained in the presence of the compounds.
(§2) The affinity values (IC50) for the compounds were obtained by a non linear least squares regression analysis on the basis of a one binding site model.

CHO/5-HT1A cells = biological target: T2, CHO/5-HT1A cells (Homo sapiens, UniProt P08908); test: 5-HT1A Functional assay (cAMP); assay type: cell-based; details: 10 µM compound; % inhibition of the cAMP accumulation induced by 10 µM FSK; read-out: 5-HT1A cAMP % inhib.
T2 construct: expressed in transfected cells; host or cells: CHO/5-HT1A cells
T2 sequence (P08908 1-422): T1 sequence (P08908 1-422)
Protocol: CHO/5-HT1A cells were random seeded at a density of about 200,000/well in 24 well plates the day prior to the experiment. On the day of the experiment, cells were pretreated for 15 min at 37 °C with 500 µM isobuthylmethylxantine (IBMX) dissolved in culture medium without serum. Wells were then divided in different groups in duplicate as follows: control, 10 µM FSK, 10 µM FSK + 1 µM 5-HT as positive standard and 10 µM FSK + 10 µM of the different compound under evaluation. Sample solutions were added and incubated for additional 15 min at 37 °C. After incubation, medium was aspirated and the reaction stopped by adding 200 µl of lysis buffer. Plates were shaken for 5 min, then the lysate was removed and samples were stored at 4 °C until the day of the assay. For the cAMP evaluation, samples were properly diluted and the cAMP content was measured by an enzymeimmunoassay system.

5-HT2A = biological target: T3, 5-HT2A (Rattus norvegicus, UniProt P14842); test: 5HT2A Radioligand Receptor Binding Assay ([3H]-Ketanserin, cerebral frontal cortex membranes); design: species or system Rats; details: 0.5 nM [3H]-Ketanserin
T3 construct: Cerebral frontal cortex was homogenized in 10 volumes of ice cold 0.32 M sucrose; from tissue; host or cells: rat cerebral frontal cortex membranes
Protocol: Rats (male Sprague-Dawley, 200-250 g) were used. Cerebral frontal cortex was homogenized in 10 volumes of ice cold 0.32 M sucrose in 5 mM Tris-HCl ([…]) buffer. After centrifugation of the homogenate (1,000 x g for 10 min) the supernatant was then recentrifuged at 48,000x g for 15 min.The resulting pellet was gently homogenized in an equal volume of 50mM Tris-HCl buffer (pH 7.4) and incubated at 37° C for 10 minutes. Membranes were then collected by centrifugation as above described and finally resuspended in 10 volumes of 50mM Tris-HCl buffer (pH 7.4).
For displacement experiments membranes (980 µl) were diluted in 50 mM Tris-HCl buffer (pH 7.4) to a final concentration of 1:100 (w/v); the tissue suspension was then incubated at 37 °C for 10 min in a final volume of 1 ml in the presence of 0.5 nM [^3H]-Ketanserin. Non specific binding was determined by incubating similar samples with unlabelled methysergide (100 µM). […] The filters were washed three times with 2 ml ice-cold Tris-HCl buffer and placed in polyethylene vials, then 4 ml of Filter Count scintillation cocktail (Packard) were added. The radioactivity present was counted by liquid scintillation spectrometry.
as §2

D4 human receptors = biological target: T4, D4 human receptors (Homo sapiens, UniProt P21917); test: D4 Radioligand Receptor Binding Assay ([3H] YM-09151-2, CHO cell membranes); details: compound at 10^-7 M, singlicate; [3H] YM-09151-2 0.15-0.25 nM; read-out: D4 receptor binding assay % inhib. (10^-7 M)
T4 construct: expressed in transfected cells; host or cells: CHO cells
T4 sequence (P21917 1-419): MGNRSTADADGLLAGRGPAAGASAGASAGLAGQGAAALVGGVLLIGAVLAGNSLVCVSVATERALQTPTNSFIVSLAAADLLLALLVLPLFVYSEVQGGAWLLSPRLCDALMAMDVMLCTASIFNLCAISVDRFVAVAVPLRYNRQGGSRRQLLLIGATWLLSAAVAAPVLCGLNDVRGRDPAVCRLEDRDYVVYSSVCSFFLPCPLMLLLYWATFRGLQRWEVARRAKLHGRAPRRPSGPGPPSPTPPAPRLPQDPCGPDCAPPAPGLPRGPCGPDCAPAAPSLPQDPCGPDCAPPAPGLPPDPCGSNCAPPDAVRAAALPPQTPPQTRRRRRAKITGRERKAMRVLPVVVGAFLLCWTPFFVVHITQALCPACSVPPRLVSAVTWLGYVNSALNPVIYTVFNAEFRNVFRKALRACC
Protocol: Membranes from CHO cells, expressing D4 human receptors were suspended in incubation buffer.
Binding assays were performed in MultiProbe 204 pipetting system (Packard), according to a predetermined mapping, consistent with the software Screen. The compounds were tested in singlicate at one concentration (10^-7 M) in a total volume of 1000 µl (980 µl of diluted membranes, 10 µl DMSO or unlabelled ligand and 10 µl of [^3H] YM-09151-2 (0.15-0.25 nM). After incubation for 120 min at 27 °C, the reaction was stopped by rapid filtration through Tomtec cell Harvester (48 wells) using Filtermat B (presoaked in 0.1% PEI) filters. Filters were washed with ice-cold 50 mM Tris-HCl (pH 7.4) buffer (9 x 700 µl), dryed, covered with MeltiLex B/HS (Wallac) scintillator sheets and heated in oven at 80-90 °C for about 10 min, transferred into plastic sample bags (Wallac), sealed and put into 1024 Beta Plate scintillation counter (Wallac). Non specific binding was determined in the presence of clozapine dissolved in DMSO to a final concentration of 10^-5 M.
as §1

T3 sequence (P14842 whole entry): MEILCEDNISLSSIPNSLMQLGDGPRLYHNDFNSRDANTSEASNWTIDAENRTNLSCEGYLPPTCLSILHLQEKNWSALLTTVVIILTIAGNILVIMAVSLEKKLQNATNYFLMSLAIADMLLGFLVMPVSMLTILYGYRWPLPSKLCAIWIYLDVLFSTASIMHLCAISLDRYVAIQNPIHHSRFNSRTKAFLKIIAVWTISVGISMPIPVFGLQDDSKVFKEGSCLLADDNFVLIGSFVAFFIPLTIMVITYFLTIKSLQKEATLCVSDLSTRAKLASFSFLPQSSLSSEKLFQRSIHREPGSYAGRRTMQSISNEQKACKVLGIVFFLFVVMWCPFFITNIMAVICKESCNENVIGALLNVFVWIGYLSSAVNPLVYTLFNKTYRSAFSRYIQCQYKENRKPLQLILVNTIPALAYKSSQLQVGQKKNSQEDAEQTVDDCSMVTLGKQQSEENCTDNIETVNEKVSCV

Row | Structure (SMILES) | IC50 (5-HT1A human receptors) [nM] | inhibition at 10 µM (CHO/5-HT1A cells) [%] | IC50 (5-HT2A) [nM] | inhibition at 0.1 µM (5-HT1A human receptors) [%] | inhibition at 0.1 µM (D4 human receptors) [%]
1 | CCNC(=O)OCCn1c(=O)n(CCN2CCN(c3cccc(C(F)(F)F)c3)CC2)c2ccccc21 [compound 206] | 2.1 | 80 | 17 |  | 
2 | CCNC(=O)OCCn1c(=O)n(CCCCN2CCN(c3cccc(C(F)(F)F)c3)CC2)c2ccccc21 [compound 83] | 15 | 64 | 43 | 89 | 39
3 | O=c1n(CCO)c2ccccc2n1CCN1CCN(c2cccc(Cl)c2)CC1 [compound 183] | 7.2 | 66 | 27 | 96 | 62
4 | Cc1cccc(N2CCN(CCn3c(=O)n(CCNS(C)(=O)=O)c4ccccc43)CC2)c1C [compound 254] | 7.4 | 66 | 65 | 85 | 34
5 | Cc1cccc(N2CCN(CCCCn3c(=O)n(CCO)c4ccccc43)CC2)c1C [compound 73] | 13 | 45 | 0.9 | 91 | 58
6 | Cc1cccc(N2CCN(CCCCn3c(=O)n(CCN4CCCCC4)c4ccccc43)CC2)c1C [compound 37] | 16 | 44 |  | 90 | 54
7 | O=c1n(CCO)c2ccccc2n1CCN1CCN(c2cccc(C(F)(F)F)c2)CC1 [compound 187] | 8.2 | 44 |  | 94 | 36
8 | COCCn1c(=O)n(CCN2CCN(c3cccc(C)c3C)CC2)c2ccccc21 [compound 177] | 3.3 | 76 | 7.7 | 98 | 
9 | O=c1n(C/C=C\CN2CCN(c3ccccc3)CC2)c2ccccc2n1CCN1CCCCC1 [compound 310] |  | 63 |  | 85 | 49
10 | COCCn1c(=O)n(CCN2CCN(c3cccc(C(F)(F)F)c3)CC2)c2ccccc21 [compound 168] | 5 | 71 | 46 |  | 
11 | O=c1n(C/C=C/CN2CCN(c3ccccn3)CC2)c2ccccc2n1CCN1CCCCC1 [compound 330] |  | 62 |  | 97 | 84
12 | COCCn1c(=O)n(CCCCN2CCN(c3cccc(C(F)(F)F)c3)CC2)c2ccccc21 [compound 9] | 9.9 | 48 | 16 | 93 | 32
